In patent publication US20130165368A1, “ANTIMICROBIAL COMPOUNDS” (priority 2010, published 2013):
≈ marks a conversion by molar mass, not a printed value. Where two headings read alike, the source gives them in different places.

What was measured:
Format in all cases: cell-based
Escherichia coli = experiment: MIC agar dilution, micro-organism 1 (10418); conditions: Escherichia coli 10418
How it was run: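 Twofold dilutions of compound emulsions in water were set in Isosensitest agar with Brazier's CCEY medium, egg yolk and lysed horse blood. Spots of 1 µL from 0.5 McFarland suspensions diluted 1/15 were incubated aerobically at 37 °C and read at 22 and 48 h. MIC (mmol/L) was the lowest concentration giving <10 colonies.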

[1] = tested on: Gram negative bacteria, Gram positive bacteria and pathogenic yeasts; experiment: MIC agar dilution, summary statements over the micro-organisms tested (Tables I, IX)
Source text: For a better understanding, the present invention will now be more particularly described, by way of non-limiting example only, as follows. The micro-organisms shown in Table I overleaf were acquired from the National Collection of Type Cultures (NCTC), Colindale, United Kingdom; the American Type Culture Collection (ATCC), Manassas, United States and the National Collection of Pathogenic Fungi (NCPF), Colindale, United Kingdom. They include Gram negative bacteria, Gram positive bacteria and pathogenic yeasts.
Throughout the period of testing the microbial strains were subcultured and incubated for 18-20 hours at 37° C. on a weekly basis. Horse blood agar plates were used to sustain the micro-organisms both prior to and throughout testing. The alkoxylated alkanols listed in Table II below were obtained (these are obtainable from Sigma-Aldrich Company Ltd, Dorset, England), each having a GC purity of at least 97%.
(§1) Molar equivalent concentrations were used to allow comparison between compounds of differing molecular mass. Due to weighing difficulties, any compound in solid form was melted in a water bath prior to dilution. To make ten-times strength concentrations, which takes into account agar dilution, 0.0352 mmol of each compound was weighed into plastic universal bottles and 4 mL of sterile distilled water (SDW) was added. To produce a homogenous emulsion the universals were vortexed; once achieved the emulsions were serial diluted by adding 2 mL to 2 mL of SDW.
Myristyl alcohol and lauryl alcohol were re-weighed and dissolved in 25 μL of the polar solvent 1-methyl-2-pyrrolidone (M6762; Sigma-Aldrich) in sterile glass universals due to an inability to achieve an even suspension. To maintain an even emulsion in the presence of SDW 37.5 μL of the non-ionic detergent Tween 20 (P1379, Sigma-Aldrich) was also added. 3.9375 mL of SDW was added to these, to create a 4 mL volume; they were vortexed and diluted as before.
(§2) For every 100 mL of Isosensitest agar (IST) (CM0471; Oxoid, Basingstoke, England), 3.1 g of the IST powder was added to 100 mL SDW (as per manufacturer's instructions) and sterilised for 15 minutes at 121° C. Once sterilised, the molten agar was cooled to 50° C. in a water-bath. Subsequently 4.8 g of CCEY powder (BC2160; Bioconnections, Wetherby, England), also known as Brazier's medium, was added to 100 mL SDW for every 100 mL of agar needed. This was then sterilised for 15 minutes at 121° C. Once sterilised the molten agar was cooled to 50° C. in a water-bath and 4 mL of egg-yolk emulsion (S2073; TCS Biosciences Ltd, Buckingham, United Kingdom) and 1 mL of lysed defibrinated horse blood (HB035; TCS Biosciences Ltd, Buckingham, United Kingdom) were also added for every 100 mL needed. Horse blood lysis is achieved by dilution to half concentration with SDW; when fully lysed the mixture will turn dark red in colour.
(§3) 18 mL agar was added to each universal and then poured into sterile Petri dishes. This step creates a 1/10 dilution resulting in agar plates of the required strength. Control plates for each set of strains were created by adding 18 mL of agar to 2 mL of SDW.
(§4) Suspensions of each bacterial species were prepared with a density equal to that of a 0.5 McFarland standard using a densitometer. All suspensions were made using sterile distilled water and fresh 18-20 hour cultures. As a 0.5 McFarland standard contains 1.5×10^8 CFU/mL and the multipoint inoculators applies 1 μL spots of liquid, each bacterial suspension was diluted 1/15 (20 μL suspension to 280 μL sterile distilled water).
Bacterial suspensions were prepared from fresh 18-24 hour cultures as previously described. 1 μL of each strain was inoculated onto all 100 agar plates containing a different chemical concentration and the 2 control plates. This was done using a multipoint inoculator which inoculates 20 strains per plate. All plates were incubated for 22 hours at 37° C. in aerobic conditions. […]

[2] = tested on: Enterococcus casseliflavus (VRE) Clin waste; experiment: MIC agar dilution, VRE strain 23
Method: as §1, §2, §3, §4
(§5) Bacterial suspensions were prepared from fresh 18-24 hour cultures as previously described. 1 μL of each strain was inoculated onto all 100 agar plates containing a different chemical concentration and the 2 control plates. This was done using a multipoint inoculator which inoculates 20 strains per plate. All plates were incubated for 22 hours at 37° C. in aerobic conditions.
(§6) Each plate was examined for bacterial growth after 22 and 48 hours, with each being incubated in between examinations. A positive result was recorded as growth of ≧10 colonies. A negative result was recorded as growth of <10 colonies as this is equivalent to 99.9% inhibition. The lowest concentration of chemical that inhibited growth was recorded as the MIC. The results are recorded in Table IV below, where the numbers are quoted in mmol/L.
(§7) Given the positive performance of the ethoxylates of lauryl alcohol in reducing the MIC for a number of the micro-organisms tested, further MIC testing of Laureth-1 [C12E1] through to Laureth-8 [C12E8] was conducted on each of the following: • 10 strains of vancomycin-resistant enterococci (VRE)—listed in Table V below; and • 20 strains of methicillin-resistant Staphylococcus aureus (MRSA)—listed in Table VI.
(§8) The alkanol, alkanol derivatives, agar plates, and inocula were all prepared in the same way as described above.
(§9) The plates were examined in the same manner as described above and the results are recorded in Table VII below, where the numbers are quoted in mmol/L.

MRSA BEL 97598 = experiment: MIC agar dilution, MRSA strain 34; conditions: Staphylococcus aureus
Method: as §1, §2, §3, §4, §5, §6, §7, §8, §9

MRSA EMRSA 16 21354/95 = experiment: MIC agar dilution, MRSA strain 44; conditions: Staphylococcus aureus
Method: as §1, §2, §3, §4, §5, §6, §7, §8, §9

[3] = tested on: Enterococcus faecium (VRE) 255693 N. Tyneside; experiment: MIC agar dilution, VRE strain 22
Method: as §1, §2, §3, §4, §5, §6, §7, §8, §9

MRSA EMRSA 16 03732/95 = experiment: MIC agar dilution, MRSA strain 45; conditions: Staphylococcus aureus
Method: as §1, §2, §3, §4, §5, §6, §7, §8, §9

MRSA FIN 54511 (E6) = experiment: MIC agar dilution, MRSA strain 32; conditions: Staphylococcus aureus
Method: as §1, §2, §3, §4, §5, §6, §7, §8, §9

[4] = tested on: vancomycin-resistant enterococci (VRE); experiment: MIC agar dilution, summary over 10 VRE strains; conditions: Enterococcus; most, if not all, of the VRE samples
Method: as §7, §8, §9

[5] = tested on: methicillin-resistant Staphylococcus aureus (MRSA); experiment: MIC agar dilution, summary over 20 MRSA strains; conditions: MRSA bacterial samples, 22 and 48 hour
Method: as §7, §8, §9

| SMILES | MIC (Escherichia coli; 22 hrs, read-out: MIC) [µM] | MIC (Escherichia coli; 48 hrs, read-out: MIC) [µM] | MIC ([1]; over the micro-organisms tested or some of them) | MIC (Escherichia coli; 22 hrs) [µM] | MIC (Escherichia coli; 48 hrs) [µM] | MIC ([2]; 22 hrs) [µM] | MIC ([2]; 48 hrs) [µM] | MIC (MRSA BEL 97598; 22 hrs) [µM] | MIC (MRSA BEL 97598; 48 hrs) [µM] | MIC (MRSA EMRSA 16 21354/95; 22 hrs) [µM] | MIC (MRSA EMRSA 16 21354/95; 48 hrs) [µM] | MIC ([3]; 22 hrs) [µM] | MIC ([3]; 48 hrs) [µM] | MIC (MRSA EMRSA 16 03732/95; 22 hrs) [µM] | MIC (MRSA EMRSA 16 03732/95; 48 hrs) [µM] | MIC (MRSA FIN 54511 (E6); 22 hrs) [µM] | MIC (MRSA FIN 54511 (E6); 48 hrs) [µM] | MIC ([1]; read-out: MIC) [µM] | MIC [4] [µM] | MIC [5] [µM] |
| --- | --- | --- | --- | --- | --- | --- | --- | --- | --- | --- | --- | --- | --- | --- | --- | --- | --- | --- | --- | --- |
| CCCCCCCCCCCCCCCCO [C0, 1-Hexadecanol, reference compound] | > 880 | > 880 | – | – | – | – | – | – | – | – | – | – | – | – | – | – | – | – | – | – |
| CCCCCCCCCCCCCOCCOCCOCCOCCOCCOCCO [C13E6, polyoxyethylene (6) tridecyl alcohol] | – | – | less than 0.88 mmol/L | >880 | >880 | – | – | – | – | – | – | – | – | – | – | – | – | – | – | – |
| CCCCCCCCCCCCOCCO [L1, Ethylene Glycol Monododecyl Ether] | 220 (≈ 50.7 µg/mL) | 220 (≈ 50.7 µg/mL) | – | – | – | 220 (≈ 50.7 µg/mL) | 220 (≈ 50.7 µg/mL) | 220 (≈ 50.7 µg/mL) | 220 (≈ 50.7 µg/mL) | 220 (≈ 50.7 µg/mL) | 220 (≈ 50.7 µg/mL) | 440 (≈ 101 µg/mL) | 440 (≈ 101 µg/mL) | 220 (≈ 50.7 µg/mL) | 220 (≈ 50.7 µg/mL) | 220 (≈ 50.7 µg/mL) | 220 (≈ 50.7 µg/mL) | ≤ 440 | ≤ 440 | – |
| CCCCCCCCCCCCOCCOCCO [L2, Diethylene Glycol Monododecyl Ether] | > 880 | > 880 | – | – | – | 220 (≈ 60.4 µg/mL) | 220 (≈ 60.4 µg/mL) | 110 (≈ 30.2 µg/mL) | 220 (≈ 60.4 µg/mL) | 110 (≈ 30.2 µg/mL) | 110 (≈ 30.2 µg/mL) | 440 (≈ 121 µg/mL) | 440 (≈ 121 µg/mL) | 110 (≈ 30.2 µg/mL) | 110 (≈ 30.2 µg/mL) | 110 (≈ 30.2 µg/mL) | 110 (≈ 30.2 µg/mL) | – | ≤ 440 | – |
| CCCCCCCCCCCCOCCOCCOCCO [L3, Triethylene Glycol Monododecyl Ether] | > 880 | > 880 | – | – | – | 220 (≈ 70.1 µg/mL) | 220 (≈ 70.1 µg/mL) | 110 (≈ 35 µg/mL) | 110 (≈ 35 µg/mL) | 110 (≈ 35 µg/mL) | 110 (≈ 35 µg/mL) | 880 (≈ 280 µg/mL) | > 880 | 110 (≈ 35 µg/mL) | 110 (≈ 35 µg/mL) | 220 (≈ 70.1 µg/mL) | 220 (≈ 70.1 µg/mL) | ~110 (≈ 35 µg/mL) | ≤ 440 | – |
| CCCCCCCCCCCCOCCOCCOCCOCCOCCO [L5, Pentaethylene Glycol Monododecyl Ether] | > 880 | > 880 | – | – | – | 110 (≈ 44.7 µg/mL) | 110 (≈ 44.7 µg/mL) | 110 (≈ 44.7 µg/mL) | 110 (≈ 44.7 µg/mL) | 110 (≈ 44.7 µg/mL) | 110 (≈ 44.7 µg/mL) | 220 (≈ 89.5 µg/mL) | 220 (≈ 89.5 µg/mL) | 110 (≈ 44.7 µg/mL) | 110 (≈ 44.7 µg/mL) | 110 (≈ 44.7 µg/mL) | 220 (≈ 89.5 µg/mL) | ~110 (≈ 44.7 µg/mL) | ≤ 440 | – |
| CCCCCCCCCCCCOCCOCCOCCOCCOCCOCCO [L6, Hexaethylene Glycol Monododecyl Ether] | > 880 | > 880 | – | – | – | 220 (≈ 99.1 µg/mL) | 220 (≈ 99.1 µg/mL) | 220 (≈ 99.1 µg/mL) | 220 (≈ 99.1 µg/mL) | 220 (≈ 99.1 µg/mL) | 440 (≈ 198 µg/mL) | 440 (≈ 198 µg/mL) | > 880 | 220 (≈ 99.1 µg/mL) | 220 (≈ 99.1 µg/mL) | 110 (≈ 49.6 µg/mL) | 110 (≈ 49.6 µg/mL) | ~110 (≈ 49.6 µg/mL) | – | – |
| CCCCCCCCCCCCOCCOCCOCCOCCOCCOCCOCCO [L7, Heptaethylene Glycol Monododecyl Ether] | > 880 | > 880 | – | – | – | 220 (≈ 109 µg/mL) | 220 (≈ 109 µg/mL) | > 440 | > 440 | > 440 | > 440 | > 880 | > 880 | > 440 | > 440 | 110 (≈ 54.4 µg/mL) | 440 (≈ 218 µg/mL) | – | – | ~440 (≈ 218 µg/mL) |
| CCCCCCCCCCCCOCCOCCOCCOCCOCCOCCOCCOCCO [L8, Octaethylene Glycol Monododecyl Ether] | > 880 | > 880 | – | – | – | 440 (≈ 237 µg/mL) | 440 (≈ 237 µg/mL) | > 440 | > 440 | > 440 | > 440 | > 880 | > 880 | > 440 | > 440 | 220 (≈ 119 µg/mL) | > 440 | – | – | ~440 (≈ 237 µg/mL) |
